Laboratory results published in PubChem BioAssay AID2060492 (Molecular Pharmacology Branch, DTP, NCI, 2025).

Tested on: 695427-040-R-J1-PDC complex spheroids, viability percent T/C
Assay: Anticancer human tumor 695427-040-R-J1-PDC patient-derived colon adenocarcinoma cell line growth inhibition [GQUAD]
Conditions: for IC50: curve of first compound; for viability, T/C: stronger effect = lower value
Summary of the method: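 Viability of tumor cells grown as complex spheroids with endothelial and stromal cells, exposed to drug combinations. Top concentration at or near clinical Cmax (else 10 microM), diluted in half-log increments.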

[1] = second compound 0.0316 µM, first compound 0.0316 µM
[2] = second compound 0.0316 µM, first compound 0.1 µM
[3] = second compound 0.0316 µM, first compound 0.316 µM
[4] = second compound 0.0316 µM, first compound 1 µM
[5] = second compound 0.0316 µM, first compound 3.16 µM
[6] = second compound 0.0316 µM, first compound 10 µM
[7] = second compound 0.1 µM, first compound 0.0316 µM
[8] = second compound 0.1 µM, first compound 0.1 µM
[9] = second compound 0.1 µM, first compound 0.316 µM
[10] = second compound 0.1 µM, first compound 1 µM
[11] = second compound 0.1 µM, first compound 3.16 µM
[12] = second compound 0.1 µM, first compound 10 µM
[13] = second compound 0.316 µM, first compound 0.0316 µM
[14] = second compound 0.316 µM, first compound 0.1 µM
[15] = second compound 0.316 µM, first compound 0.316 µM
[16] = second compound 0.316 µM, first compound 1 µM
[17] = second compound 0.316 µM, first compound 3.16 µM
[18] = second compound 0.316 µM, first compound 10 µM
[19] = second compound 1 µM, first compound 0.0316 µM
[20] = second compound 1 µM, first compound 0.1 µM
[21] = second compound 1 µM, first compound 0.316 µM
[22] = second compound 1 µM, first compound 1 µM
[23] = second compound 1 µM, first compound 3.16 µM
[24] = second compound 1 µM, first compound 10 µM
[25] = second compound 3.16 µM, first compound 0.0316 µM
[26] = second compound 3.16 µM, first compound 0.1 µM
[27] = second compound 3.16 µM, first compound 0.316 µM
[28] = second compound 3.16 µM, first compound 1 µM
[29] = second compound 3.16 µM, first compound 3.16 µM
[30] = second compound 3.16 µM, first compound 10 µM
[31] = second compound 10 µM, first compound 0.0316 µM
[32] = second compound 10 µM, first compound 0.1 µM
[33] = second compound 10 µM, first compound 0.316 µM
[34] = second compound 10 µM, first compound 1 µM
[35] = second compound 10 µM, first compound 3.16 µM
[36] = second compound 10 µM, first compound 10 µM
[37] = second compound 0.0316 µM, first compound 0.000999 µM
[38] = second compound 0.0316 µM, first compound 0.00316 µM
[39] = second compound 0.0316 µM, first compound 0.00999 µM
[40] = second compound 0.0316 µM, first compound 0.0999 µM
[41] = second compound 0.1 µM, first compound 0.000999 µM
[42] = second compound 0.1 µM, first compound 0.00316 µM
[43] = second compound 0.1 µM, first compound 0.00999 µM
[44] = second compound 0.1 µM, first compound 0.0999 µM
[45] = second compound 0.316 µM, first compound 0.000999 µM
[46] = second compound 0.316 µM, first compound 0.00316 µM
[47] = second compound 0.316 µM, first compound 0.00999 µM
[48] = second compound 0.316 µM, first compound 0.0999 µM
[49] = second compound 1 µM, first compound 0.000999 µM
[50] = second compound 1 µM, first compound 0.00316 µM
[51] = second compound 1 µM, first compound 0.00999 µM
[52] = second compound 1 µM, first compound 0.0999 µM
[53] = second compound 3.16 µM, first compound 0.000999 µM
[54] = second compound 3.16 µM, first compound 0.00316 µM
[55] = second compound 3.16 µM, first compound 0.00999 µM
[56] = second compound 3.16 µM, first compound 0.0999 µM
[57] = second compound 10 µM, first compound 0.000999 µM
[58] = second compound 10 µM, first compound 0.00316 µM
[59] = second compound 10 µM, first compound 0.00999 µM
[60] = second compound 10 µM, first compound 0.0999 µM
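Further: spheroids exposed to compounds for seven days before readout.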

CC(C)n1c(=O)n(C)c2cnc3cc(F)c(-c4ccc(OCCCN5CCCCC5)nc4)cc3c21 + Cc1[nH]c2ccc(F)cc2c1-c1nc2c3cccnc3c3ncccc3c2[nH]1
IC50 (second compound 0.0316 µM): > 10000 nM
IC50 (second compound 0.1 µM): > 10000 nM
IC50 (second compound 0.316 µM): > 10000 nM
IC50 (second compound 1 µM): 9840 nM
IC50 (second compound 3.16 µM): > 10000 nM
IC50 (second compound 10 µM): 7230 nM
viability, T/C [1]: 116%
viability, T/C [2]: 92.2%
viability, T/C [3]: 116%
viability, T/C [4]: 74.3%
viability, T/C [5]: 93.5%
viability, T/C [6]: 65.4%
viability, T/C [7]: 101%
viability, T/C [8]: 97.2%
viability, T/C [9]: 128%
viability, T/C [10]: 91.7%
viability, T/C [11]: 94.3%
viability, T/C [12]: 58.8%
viability, T/C [13]: 102%
viability, T/C [14]: 120%
viability, T/C [15]: 96.4%
viability, T/C [16]: 98.7%
viability, T/C [17]: 99.2%
viability, T/C [18]: 61.3%
viability, T/C [19]: 84.2%
viability, T/C [20]: 106%
viability, T/C [21]: 111%
viability, T/C [22]: 109%
viability, T/C [23]: 106%
viability, T/C [24]: 49.1%
viability, T/C [25]: 86.8%
viability, T/C [26]: 85%
viability, T/C [27]: 94.8%
viability, T/C [28]: 96.2%
viability, T/C [29]: 92.2%
viability, T/C [30]: 50.3%
viability, T/C [31]: 61.7%
viability, T/C [32]: 83%
viability, T/C [33]: 95.5%
viability, T/C [34]: 80.9%
viability, T/C [35]: 87.1%
viability, T/C [36]: 37.6%

CCc1c2c(nc3ccc(O)cc13)-c1cc3c(c(=O)n1C2)COC(=O)[C@]3(O)CC + Cc1[nH]c2ccc(F)cc2c1-c1nc2c3cccnc3c3ncccc3c2[nH]1
IC50 (second compound 0.0316 µM): 168 nM
IC50 (second compound 0.1 µM): 161 nM
IC50 (second compound 0.316 µM): 112 nM
IC50 (second compound 1 µM): 106 nM
IC50 (second compound 3.16 µM): 82.4 nM
IC50 (second compound 10 µM): 106 nM
viability, T/C [37]: 95.4%
viability, T/C [38]: 74%
viability, T/C [39]: 87.9%
viability, T/C [1]: 57.8%
viability, T/C [40]: 62%
viability, T/C [3]: 40.8%
viability, T/C [41]: 93.7%
viability, T/C [42]: 71.6%
viability, T/C [43]: 80.2%
viability, T/C [7]: 57.7%
viability, T/C [44]: 57.6%
viability, T/C [9]: 43%
viability, T/C [45]: 99.5%
viability, T/C [46]: 64.2%
viability, T/C [47]: 82.2%
viability, T/C [13]: 63.2%
viability, T/C [48]: 56.1%
viability, T/C [15]: 34.5%
viability, T/C [49]: 67.7%
viability, T/C [50]: 85.8%
viability, T/C [51]: 82%
viability, T/C [19]: 64.6%
viability, T/C [52]: 52.5%
viability, T/C [21]: 37.6%
viability, T/C [53]: 72%
viability, T/C [54]: 74.5%
viability, T/C [55]: 63.5%
viability, T/C [25]: 59.5%
viability, T/C [56]: 48.7%
viability, T/C [27]: 33.2%
viability, T/C [57]: 71.9%
viability, T/C [58]: 72.2%
viability, T/C [59]: 66.4%
viability, T/C [31]: 60.8%
viability, T/C [60]: 49.8%
viability, T/C [33]: 37.4%

CC(C)n1c(=O)n(C)c2cnc3cc(F)c(-c4ccc(OCCCN5CCCCC5)nc4)cc3c21 + Cc1cnc(CNC(=O)c2c(=O)c3ccc(N4CCCN(C)CC4)nc3n3c2sc2ccccc23)cn1
IC50 (second compound 0.0316 µM): > 10000 nM
IC50 (second compound 0.1 µM): > 10000 nM
IC50 (second compound 0.316 µM): > 10000 nM
IC50 (second compound 1 µM): 7260 nM
IC50 (second compound 3.16 µM): 2610 nM
IC50 (second compound 10 µM): < 31.6 nM
viability, T/C [1]: 80.7%
viability, T/C [2]: 80.8%
viability, T/C [3]: 88%
viability, T/C [4]: 80.9%
viability, T/C [5]: 84.6%
viability, T/C [6]: 56%
viability, T/C [7]: 87.1%
viability, T/C [8]: 76.8%
viability, T/C [9]: 91.7%
viability, T/C [10]: 66.3%
viability, T/C [11]: 84.6%
viability, T/C [12]: 51.5%
viability, T/C [13]: 89%
viability, T/C [14]: 49.6%
viability, T/C [15]: 75.8%
viability, T/C [16]: 71.6%
viability, T/C [17]: 85.4%
viability, T/C [18]: 56.3%
viability, T/C [19]: 90%
viability, T/C [20]: 64.4%
viability, T/C [21]: 69.9%
viability, T/C [22]: 68.6%
viability, T/C [23]: 73.5%
viability, T/C [24]: 41.1%
viability, T/C [25]: 51.5%
viability, T/C [26]: 47.4%
viability, T/C [27]: 57.8%
viability, T/C [28]: 54.6%
viability, T/C [29]: 49%
viability, T/C [30]: 20.4%
viability, T/C [31]: 43.5%
viability, T/C [32]: 40.3%
viability, T/C [33]: 45.8%
viability, T/C [34]: 42.6%
viability, T/C [35]: 43.1%
viability, T/C [36]: 0.95%

CC[C@@]1(O)C(=O)OCc2c1cc1n(c2=O)Cc2cc3c(CN(C)C)c(O)ccc3nc2-1 + CN(C)c1ccc(Nc2c3ccc(NC(=O)CCN4CCCC4)cc3nc3cc(NC(=O)CCN4CCCC4)ccc23)cc1
IC50 (second compound 0.0316 µM): > 316 nM
IC50 (second compound 0.1 µM): > 316 nM
IC50 (second compound 0.316 µM): > 316 nM
IC50 (second compound 1 µM): > 316 nM
IC50 (second compound 3.16 µM): > 316 nM
IC50 (second compound 10 µM): > 316 nM
viability, T/C [37]: 109%
viability, T/C [38]: 95%
viability, T/C [39]: 108%
viability, T/C [1]: 100%
viability, T/C [40]: 104%
viability, T/C [3]: 91.6%
viability, T/C [41]: 117%
viability, T/C [42]: 101%
viability, T/C [43]: 96.8%
viability, T/C [7]: 101%
viability, T/C [44]: 98.9%
viability, T/C [9]: 85%
viability, T/C [45]: 97.6%
viability, T/C [46]: 104%
viability, T/C [47]: 100%
viability, T/C [13]: 111%
viability, T/C [48]: 100%
viability, T/C [15]: 95.8%
viability, T/C [49]: 101%
viability, T/C [50]: 95.2%
viability, T/C [51]: 96.1%
viability, T/C [19]: 99.9%
viability, T/C [52]: 97.8%
viability, T/C [21]: 93.7%
viability, T/C [53]: 99.2%
viability, T/C [54]: 100%
viability, T/C [55]: 96.2%
viability, T/C [25]: 103%
viability, T/C [56]: 110%
viability, T/C [27]: 82.1%
viability, T/C [57]: 94.3%
viability, T/C [58]: 84.8%
viability, T/C [59]: 92.2%
viability, T/C [31]: 88.3%
viability, T/C [60]: 91%
viability, T/C [33]: 88.6%
